According to US20130266636A1, “METHODS FOR BLOCKING CELL PROLIFERATION AND TREATING DISEASES AND CONDITIONS RESPONSIVE TO CELL GROWTH INHIBITION” (THE REGENTS OF THE UNIVERSITY OF CALIFORNIA, priority 2010, published 2013):
Entries after “also recorded” stand apart in the source; their conditions may differ.

Columns and labels:
[1] = molecular target: T1, phospho-S338 c-RAF (CRAF) (Homo sapiens, UniProt P04049); assay: Phospho-S338 CRAF staining in orthotopic MDA-MB-231 breast cancer tissues; format: in vivo, mice; details: systemic KG5 50 mg/kg i.p. bid, 3 days
T1 construct: immunofluorescent staining of phospho-S338 c-RAF (CRAF) in orthotopic breast cancer tissues untreated or systemically treated with KG5; from tissue; host or cells: orthotopic MDA-MB-231 tumours in nude mice
Experimental: FIG. 4 illustrates the effect of KG5 on orthotopic MDA-MB-231 breast cancer cells after three days, as further discussed in Example 1, below.
FIG. 4 illustrates an immunofluorescent staining of phospho-S338 c-RAF (CRAF) in orthotopic breast cancer tissues untreated or systemically treated with KG5 for 3 days.
Tumors were generated by injection of MDA-MB-231 human breast carcinoma cells (2×10^6 tumor cells in 50 μl of sterile PBS) into the mammary fatpad of 6-8 week old female nude mice. Tumors were established for 2 weeks before beginning dosing. Mice were dosed with vehicle (10% HS-15) or 50 mg/kg KG5 (i.p. bid) for 3 days prior to harvest. All research was conducted under protocols approved by the UCSD animal subjects committee and in accordance with the guidelines set forth in the NIH Guide for the Care and Use of Laboratory Animals.
Immunostaining was performed according to the manufacturer's recommendations (Vector Labs), on […] sections of paraffin-embedded tumors from the orthotopic xenograft breast and brain cancer mouse models, the subcutaneous tumor mouse model or from human patients diagnosed with breast or brain cancer (as approved by the Institutional Review Board at University of California, San Diego). Antigen retrieval was performed in citrate buffer pH 6.0 at 95° C. for 20 min. […]

Plk1 = Plk1 localization, confocal microscopy and CenpF immunoprecipitates; format: cell-based, human
Description: FIG. 46. CRAF regulates Plk1 activity and localization. FIG. 46(a) Plk1 kinase activity assay performed in WT and CRAF−/− MEFs. Error bars represent s.d. (n=3); * two tailed p value=0.029 using Mann Whitney U test. FIG. 46(b) Immunoblot analysis of XPA-1 cells asynchronous or arrested in mitosis by treatment with KG5, nocodazole or paclitaxel (referred to as Ncdzl and Ptxl respectively). pPlk1 refers to phospho-T210 Plk1 and pHH3 refers to phospho-Histone H3. Data are representative of three independent experiments. FIG. 46(c) Plk1 kinase activity assay performed in HCT-116 cells treated with nocodazole or nocodazole and KG5. Error bars represent s.d. (n=2); * two tailed p value=0.002 using Mann Whitney U test. FIG. 46(d) Immunoblot analysis of CenpF immunoprecipitates from HCT-116 cells untreated or treated with KG5. Data are representative of three independent experiments. FIG. 46(e) Confocal microscopy images of XPA-1 cell at prophase (upper panel), pro-metaphase control untreated (middle panel) or treated with KG5 (lower panel). Cells were stained for phospho-T210 Plk1 (in green), a tubulin (in red) and DNA (TOPRO-3™ in blue). Thick white arrows indicate localization of pPlk1 at the mitotic spindle pole and narrow white arrows indicate localization of pPlk1 at the kinetochores. Scale bar, 10 p.m. […]

p-MEK and p-ERK = details: cited from earlier work
PKC = details: cited from earlier work
PDGFR = details: cited from earlier work
CRAF = CRAF (Homo sapiens, UniProt P04049); assay: CRAF localization to the mitotic spindle, confocal microscopy of XPA-1 cells; format: cell-based; set-up: total CRAF and total MEK of lysates from XPA-1 cells treated with PD0325901, Sorafenib, L-779450, PLX4720, KG5 or KG1; endogenous in cells; host or cells: XPA-1
Description: FIG. 35. […] Data are representative of three independent experiments. FIG. 35 (b) Confocal microscopy images of human pancreatic XPA-1 and glioblastoma U251 cells during mitosis, stained for phospho-5338 CRAF (in green), α-tubulin (in red) and DNA (TOPRO-3™ in blue). Scale bar, 10 μm. White arrows indicate localization of phospho-S338 CRAF at the mitotic spindle. FIG. 35 (c) Immunoblot analysis of γ-tubulin immunoprecipitates from human colon carcinoma HCT-116 cells asynchronized and synchronized at pro-metaphase. Data are representative of three independent experiments. FIG. 35(d) Immunohistochemical staining of phospho-S338 CRAF in tumor biopsies from breast cancer patients. Scale bar, 10 μm. FIG. 35(e) Confocal microscopy images of XPA-1 cells treated with KG5, sorafenib, ZM336372, L779450 or paclitaxel and stained for CRAF (in green), γ-tubulin (in red) and DNA (TOPRO-3™ in blue). Scale bar, 10 μm. White arrows indicate localization of CRAF at the spindle pole. White circle indicates the absence of CRAF at the spindle pole.
Cells attached to cover-slips were fixed with cold methanol and permeabilized in PBS containing 0.1% triton for two minutes and blocked for 60 minutes, at room temperature with 2% BSA in PBS. Cells were stained with antibodies to CRAF (Abcam), phospho-serine 338 CRAF (SantaCruz), phospho-serine 338 CRAF (Thermo Scientific), a tubulin (Calbiochem), γ tubulin (Abcam), laminB (SantaCruz), Plk1 (Abcam), phospho-T210 Plk1 (Abcam), or phospho-T288 Aurora A (cell signaling). All primary antibodies were used at 1:100 dilution, for two hours at room temperature. After washing several times with PBS, cells were stained for two hours at room temperature, with secondary antibody specific for mouse, rabbit or goat (Invitrogen), as appropriate, diluted 1:300 and co-incubated with the DNA dye TOPRO-3™ (1:500) (Invitrogen). Samples were mounted in VECTASHIELD™ hard-set mounting media (Vector Laboratories) and imaged on a Nikon ECLIPSE C1™ confocal microscope with a 1.4 NA 60× oil-immersion lens, using minimum pinhole (30 μm). Images were captured using EZ-C1-3.50 imaging software.

Chain of CRAF (P04049 whole entry): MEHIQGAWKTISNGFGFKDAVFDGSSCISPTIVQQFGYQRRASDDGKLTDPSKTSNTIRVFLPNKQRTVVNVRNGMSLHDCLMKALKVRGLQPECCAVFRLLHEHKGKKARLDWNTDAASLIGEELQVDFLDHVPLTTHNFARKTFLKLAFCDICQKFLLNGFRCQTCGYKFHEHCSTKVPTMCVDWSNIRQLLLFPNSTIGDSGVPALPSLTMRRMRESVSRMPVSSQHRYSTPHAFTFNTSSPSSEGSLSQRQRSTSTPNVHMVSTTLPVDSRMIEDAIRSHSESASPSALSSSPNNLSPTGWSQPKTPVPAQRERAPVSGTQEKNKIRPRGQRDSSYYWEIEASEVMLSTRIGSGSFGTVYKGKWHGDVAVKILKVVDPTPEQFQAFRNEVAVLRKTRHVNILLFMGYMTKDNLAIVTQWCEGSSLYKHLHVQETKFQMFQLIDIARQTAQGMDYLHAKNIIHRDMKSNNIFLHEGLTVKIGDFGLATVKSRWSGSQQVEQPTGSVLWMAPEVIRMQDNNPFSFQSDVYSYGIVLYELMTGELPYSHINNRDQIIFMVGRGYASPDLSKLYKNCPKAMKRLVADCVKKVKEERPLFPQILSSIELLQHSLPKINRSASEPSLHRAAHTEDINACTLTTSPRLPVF
T1 sequence (P04049 whole entry): as above

## CSc1nc(N)cc(Oc2ccc(-c3nnc(Nc4cccc(C(F)(F)F)c4)[nH]3)cc2)n1 [KG5]
[1]
  phospho-S338 CRAF in orthotopic breast cancer tissues: qualitative decrease in phospho-5338 RAF
[1]; 50 mg/kg
  phospho-S338 CRAF in orthotopic breast cancer tissues: inhibits serine 338 phosphorylation of CRAF
Plk1
  Plk1 localization to the spindle pole: no effect on Plk1 localization to the spindle pole
  accumulation of active Plk1 at the kinetochores: prevented the subsequent accumulation of active Plk1 at the kinetochores
p-MEK and p-ERK; bFGF- or VEGF-stimulated endothelial cells
  p-MEK and p-ERK: blocked
p-MEK and p-ERK; endothelial cells
  bFGF- or VEGF-mediated phosphorylation of MEK on S217/S221: inhibited
  bFGF- or VEGF-mediated phosphorylation of MEK on S298: not on S298
PKC
  PKC: no impact
PDGFR
  inhibition of PDGFR: inhibits
CRAF
  CRAF localization to the mitotic spindle: prevents CRAF recruitment to the mitotic spindle; also recorded: prevented this localization
  prevents phospho-S338 CRAF recruitment to the mitotic spindle: prevents phospho-S338 CRAF recruitment to the mitotic spindle
